Data published in patent US20240368159A1, “HPK1 DEGRADERS, COMPOSITIONS COMPRISING THE HPK1 DEGRADER, AND METHODS OF USING THE SAME” (BIOFRONT LTD, priority 2021, published 2024).

Key:
HPK1 p-SLP-76 = HPK1 p-SLP-76 inhibition assay in human PBMC (HTRF); type: cell-based; details: 6 h compound, anti-CD3 stimulation 20 min
Outline: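 Human PBMC starved overnight in 0.5% FBS, treated with compound 6 h at 37° C, then stimulated with anti-CD3 (10 ug/mL final) for 20 min. Lysates analysed for phospho-SLP76 by HTRF after overnight detection-antibody incubation at 25° C.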

HPK1 protein [1] = target: T1, HPK1 protein (Homo sapiens, UniProt Q92918); assay: HPK1 enzyme inhibition assay (ADP-Glo); type: biochemical; details: MBP substrate, ATP, ADP-Glo readout
T1 construct: purchased Signal Chem M23-11G-10
T1 sequence (Q92918 1-346 limits assumed): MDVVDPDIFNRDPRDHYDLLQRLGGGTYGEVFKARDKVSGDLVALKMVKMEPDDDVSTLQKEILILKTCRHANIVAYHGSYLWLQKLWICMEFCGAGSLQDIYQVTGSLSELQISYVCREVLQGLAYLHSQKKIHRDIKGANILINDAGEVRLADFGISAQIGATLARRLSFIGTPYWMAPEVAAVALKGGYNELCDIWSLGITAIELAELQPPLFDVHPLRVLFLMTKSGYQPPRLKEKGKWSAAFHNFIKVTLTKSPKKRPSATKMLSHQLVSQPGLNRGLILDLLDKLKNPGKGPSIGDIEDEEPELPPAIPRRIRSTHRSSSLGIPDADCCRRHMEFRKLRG
Outline: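 Recombinant human HPK1 preincubated with compound 60 min at 25 °C, then reaction with MBP (0.2 ug/ul, 2× stock) and ATP (20 μM, 2× stock) 60 min at 25 °C. ADP formed detected by ADP-Glo after ATP depletion and conversion to ATP; IC50 calculated from signal.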

HPK1 protein [2] = target: T2, HPK1 protein (Mus musculus, UniProt P70218); assay: HPK1 protein degradation in mouse pan T cell (western blot); type: cell-based; details: 18 h incubation
T2 construct: the CD3+ T cell population was isolated from spleenocytes of mice; endogenous in cells; host or cells: primary mouse splenic CD3+ (pan) T cells
T2 sequence (P70218 1-827): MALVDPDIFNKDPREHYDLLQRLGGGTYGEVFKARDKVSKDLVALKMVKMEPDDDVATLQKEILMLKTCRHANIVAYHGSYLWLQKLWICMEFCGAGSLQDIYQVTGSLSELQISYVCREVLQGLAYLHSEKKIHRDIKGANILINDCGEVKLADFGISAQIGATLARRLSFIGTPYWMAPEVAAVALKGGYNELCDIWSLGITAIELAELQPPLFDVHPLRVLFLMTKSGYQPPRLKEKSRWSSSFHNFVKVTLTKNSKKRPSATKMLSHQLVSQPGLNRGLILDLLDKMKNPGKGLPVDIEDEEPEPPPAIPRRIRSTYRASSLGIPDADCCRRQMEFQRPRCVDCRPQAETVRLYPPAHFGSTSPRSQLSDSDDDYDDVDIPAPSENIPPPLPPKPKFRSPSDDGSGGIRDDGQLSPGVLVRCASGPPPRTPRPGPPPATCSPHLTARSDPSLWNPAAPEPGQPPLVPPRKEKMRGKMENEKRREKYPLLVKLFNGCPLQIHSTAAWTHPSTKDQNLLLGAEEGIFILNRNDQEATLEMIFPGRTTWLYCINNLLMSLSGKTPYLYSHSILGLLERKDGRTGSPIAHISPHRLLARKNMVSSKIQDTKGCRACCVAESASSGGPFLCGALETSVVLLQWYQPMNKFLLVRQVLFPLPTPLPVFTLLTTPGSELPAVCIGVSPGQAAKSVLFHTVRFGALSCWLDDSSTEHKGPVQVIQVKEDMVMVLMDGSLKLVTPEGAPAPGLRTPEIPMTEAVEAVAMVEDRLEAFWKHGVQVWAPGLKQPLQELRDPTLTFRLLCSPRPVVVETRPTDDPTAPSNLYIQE
Method: (§1) HPK1 protein degradation in mouse pan T cell: the CD3+ T cell population was isolated from spleenocytes of mice by using Pan T cell isolation kit from Miltenyi Biotec (130-095-130) following manufacture's instruction. The isolated T cells were then incubated with a variety of concentrations of compound. After incubation for 18 h, the cells were collected and lysed. The protein concentration was determined by BCA protein assay kit from Thermo (23227). The HPK1 protein level was determined by western blots, using anti-human HPK1 polyclonal antibody from CST (4472). Proteins were loaded into each well of the pre-casting gels and subjected to electrophoretic separation by SDS-PAGE. The protein resolved by SDS-PAGE were transferred to PVDF, blocked by 5% skim milk and probed with anti-human HPK1 antibody or β-actin antibody from CST (3700S), using following standard western blotting procedure.

HPK1 protein [3] = target: T3, HPK1 protein (Homo sapiens, UniProt Q92918); assay: HPK1 protein degradation in human PBMC (western blot); type: cell-based; details: 18 h incubation
T3 construct: Frozen human PBMC were purchased from Shanghai OribioTech; host or cells: human PBMC
Method: as §1, with “human PBMC: Frozen human PBMC were purchased” for “mouse pan T cell: the CD3+ T cell population was isolated”, “Shanghai OribioTech and recovered with culture medium (RMPI1640) prior to use.” for “spleenocytes of mice by using Pan T cell isolation kit from Miltenyi Biotec (130-095-130) following manufacture's instruction.”, “The” for “The isolated T”, “(4472S).” for “(4472).”, “milk,” for “milk”, “using” for “using following”
T3 sequence (Q92918 whole entry): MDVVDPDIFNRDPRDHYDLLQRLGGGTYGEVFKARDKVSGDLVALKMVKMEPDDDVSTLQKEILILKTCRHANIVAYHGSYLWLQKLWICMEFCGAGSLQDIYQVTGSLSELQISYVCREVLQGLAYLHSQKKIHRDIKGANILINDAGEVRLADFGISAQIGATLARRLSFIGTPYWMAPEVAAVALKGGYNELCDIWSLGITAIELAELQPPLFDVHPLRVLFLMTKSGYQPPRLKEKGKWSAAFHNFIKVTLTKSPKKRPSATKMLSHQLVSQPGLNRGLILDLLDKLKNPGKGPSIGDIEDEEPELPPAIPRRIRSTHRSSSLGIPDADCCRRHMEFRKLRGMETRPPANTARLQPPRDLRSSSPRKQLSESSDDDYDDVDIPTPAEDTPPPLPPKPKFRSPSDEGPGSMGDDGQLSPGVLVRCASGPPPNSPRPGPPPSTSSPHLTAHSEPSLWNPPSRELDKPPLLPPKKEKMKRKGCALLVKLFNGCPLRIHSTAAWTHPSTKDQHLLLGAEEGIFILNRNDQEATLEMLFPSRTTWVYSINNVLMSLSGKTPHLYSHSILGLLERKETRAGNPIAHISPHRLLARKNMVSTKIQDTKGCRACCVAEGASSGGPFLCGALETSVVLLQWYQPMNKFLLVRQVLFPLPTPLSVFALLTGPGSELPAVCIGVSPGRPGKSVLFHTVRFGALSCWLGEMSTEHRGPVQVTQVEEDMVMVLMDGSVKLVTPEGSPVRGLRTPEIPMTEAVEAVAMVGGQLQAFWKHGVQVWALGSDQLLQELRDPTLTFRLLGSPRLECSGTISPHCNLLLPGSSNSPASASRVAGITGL

IC50 (HPK1 p-SLP-76) [nM]	IC50 (HPK1 protein [1]) [nM]	Dmax (HPK1 protein [2]) [%]	Dmax (HPK1 protein [3]) [%]	Structure (SMILES)
≤ 300	≤ 10	80	96	CCc1c[nH]c2ncc(-c3cccc(N4CCN(C(=O)COC5CCN(c6ccc7c(c6)C(=O)N(C6CCC(=O)NC6=O)C7=O)CC5)CC4=O)c3)c(Cl)c12 (centres unmarked) [Example 16, 5-(4-(2-(4-(3-(4-chloro-3-ethyl-1H-pyrrolo[2,3-b]pyridin-5-yl)phenyl)-3-oxopiperazin-1-yl)-2-oxoethoxy)piperidin-1-yl)-2-(2,6-dioxopiperidin-3-yl)isoindoline-1,3-dione]
300 to 3000	10 to 100	96	96	CCc1c[nH]c2ncc(-c3cccc(N4CCN(CCCN5CCN(c6cc7c(cc6F)C(=O)N(C6CCC(=O)NC6=O)C7=O)CC5)CC4=O)c3)c(Cl)c12 (centres unmarked) [Example 25]
300 to 3000	10 to 100	–	80	CCc1c[nH]c2ncc(-c3cccc(N4CCN(CCN5CCN(c6ccc7c(c6)C(=O)N(C6CCC(=O)NC6=O)C7=O)CC5)CC4=O)c3)c(Cl)c12 (centres unmarked) [Example 28, 5-(4-(2-(4-(3-(4-chloro-3-ethyl-1H-pyrrolo[2,3-b]pyridin-5-yl)phenyl)-3-oxopiperazin-1-yl)ethyl)piperazin-1-yl)-2-(2,6-dioxopiperidin-3-yl)isoindoline-1,3-dione]
–	10 to 100	50	30	CCc1c[nH]c2ncc(-c3cc(N4CCN(C(=O)CN(C)C5CCN(c6cc7c(cc6F)C(=O)N(C6CCC(=O)NC6=O)C7=O)CC5)CC4=O)ccc3F)c(Cl)c12 (centres unmarked) [Example 44]
–	10 to 100	90	78	O=C1CCC(N2C(=O)c3cc(F)c(N4CCC(CCN5CCN(c6cccc(-c7cnc8[nH]cc(C9CC9)c8c7Cl)c6)C(=O)C5)CC4)cc3C2=O)C(=O)N1 (centres unmarked) [Example 45]
–	10 to 100	95	57	CC(OC1CCN(c2cc3c(cc2F)C(=O)N(C2CCC(=O)NC2=O)C3=O)CC1)C(=O)N1CCN(c2cccc(-c3cnc4[nH]cc(C5CC5)c4c3Cl)c2)C(=O)C1 (centres unmarked) [Example 48]
–	10 to 100	95	96	O=C1CCC(N2C(=O)c3cc(F)c(N4CCN(C5CC(CN6CCN(c7cccc(-c8cnc9[nH]cc(C%10CC%10)c9c8Cl)c7)C(=O)C6)C5)CC4)cc3C2=O)C(=O)N1 (centres unmarked) [Example 51, 5-(4-(3-((4-(3-(4-chloro-3-cyclopropyl-1H-pyrrolo[2,3-b]pyridin-5-yl)phenyl)-3-oxopiperazin-1-yl)methyl)cyclobutyl)piperazin-1-yl)-2-(2,6-dioxopiperidin-3-yl)-6-fluoroisoindoline-1,3-dione]
–	10 to 100	95	31	O=C1CCC(N2C(=O)c3cc(F)c(N4CCC5(CC4)CN(CCN4CCN(c6cccc(-c7cnc8[nH]cc(C9CC9)c8c7Cl)c6)C(=O)C4)C5)cc3C2=O)C(=O)N1 (centres unmarked) [Example 52]
–	100 to 1000	95	55	O=C1CCC(N2C(=O)c3cc(F)c(N4CCC(CCN5CCN(c6cccc(-c7cnc8[nH]cc(CC(F)F)c8c7Cl)c6)C(=O)C5)CC4)cc3C2=O)C(=O)N1 (centres unmarked) [Example 55]

The remaining lines, values behind:

Structure (SMILES)	IC50 (HPK1 p-SLP-76) [nM]	IC50 (HPK1 protein [1]) [nM]	Dmax (HPK1 protein [2]) [%]	Dmax (HPK1 protein [3]) [%]
O=C1CCC(N2Cc3ccc(N4CCC(OCC(=O)N5CCN(c6cccc(-c7cnc8[nH]cc(C9CC9)c8c7Cl)c6)C(=O)C5)CC4)cc3C2=O)C(=O)N1 (centres unmarked) [Example 46]	–	≤ 10	90	51
O=C1CCC(N2Cc3cc(N4CCC(OCC(=O)N5CCN(c6cccc(-c7cnc8[nH]cc(C9CC9)c8c7Cl)c6)C(=O)C5)CC4)ccc3C2=O)C(=O)N1 (centres unmarked) [Example 47]	–	≤ 10	95	85
O=C1CCC(N2C(=O)c3cc(F)c(N4CCN(CCCN5CCN(c6cccc(-c7cnc8[nH]cc(C9CC9)c8c7Cl)n6)C(=O)C5)CC4)cc3C2=O)C(=O)N1 (centres unmarked) [Example 53, 5-(4-(3-(4-(6-(4-chloro-3-cyclopropyl-1H-pyrrolo[2,3-b]pyridin-5-yl)pyridin-2-yl)-3-oxopiperazin-1-yl)propyl)piperazin-1-yl)-2-(2,6-dioxopiperidin-3-yl)-6-fluoroisoindoline-1,3-dione]	–	10 to 100	95	86
O=C1CCN(c2cccc3cc(N4CCN(CCCN5CCN(c6cccc(-c7cnc8[nH]cc(C9CC9)c8c7Cl)n6)C(=O)C5)CC4)ccc23)C(=O)N1 [Example 69, 1-(6-(4-(3-(4-(6-(4-chloro-3-cyclopropyl-1H-pyrrolo[2,3-b]pyridin-5-yl)pyridin-2-yl)-3-oxopiperazin-1-yl)propyl)piperazin-1-yl)naphthalen-1-yl)dihydropyrimidine-2,4 (1H,3H)-dione]	300 to 3000	≤ 10	–	74
O=C1CCN(c2cccc3cc(N4CCC(OCCN5CCN(c6cccc(-c7cnc8[nH]cc(C9CC9)c8c7Cl)n6)C(=O)C5)CC4)ccc23)C(=O)N1 [Example 72]	300 to 3000	10 to 100	–	30
CCc1c[nH]c2ncc(-c3cccc(N4CCN(CCCN5CC=C(c6ccc7c(N8CCC(=O)NC8=O)nn(C)c7c6)CC5)CC4=O)c3)c(Cl)c12 [Example 74, 1-(6-(1-(3-(4-(3-(4-chloro-3-ethyl-1H-pyrrolo[2,3-b]pyridin-5-yl)phenyl)-3-oxopiperazin-1-yl)propyl)-1,2,3,6-tetrahydropyridin-4-yl)-1-methyl-1H-indazol-3-yl)dihydropyrimidine-2,4 (1H,3H)-dione]	–	≤ 10	91	86
CCc1c[nH]c2ncc(-c3cccc(N4CCN(CCCN5CCN(c6ccc7c(N8CCC(=O)NC8=O)cccc7c6)CC5)CC4=O)c3)c(Cl)c12 [Example 76, 1-(6-(4-(3-(4-(3-(4-chloro-3-ethyl-1H-pyrrolo[2,3-b]pyridin-5-yl)phenyl)-3-oxopiperazin-1-yl)propyl)piperazin-1-yl)naphthalen-1-yl)dihydropyrimidine-2,4 (1H,3H)-dione]	–	10 to 100	95	74
CCc1c[nH]c2ncc(-c3cccc(N4CCN(S(=O)(=O)CCN5CCN(c6ccc7c(c6)C(=O)N(C6CCC(=O)NC6=O)C7=O)CC5)CC4=O)c3)c(Cl)c12 (centres unmarked) [Example 100]	–	10 to 100	90	93
